{"source": "paper PMC7501296", "about": "“Rapid and direct control of target protein levels with VHL-recruiting dTAG molecules” (Nature Communications, 2020)", "key": {"FKBP12^F36V-Nluc": {"target": "T1, FKBP12^F36V-Nluc (Homo sapiens, UniProt P62942, F37V)", "T1 construct": "expressed in transfected cells; host or cells: 293FT", "T1 sequence (P62942 2-108 F37V limits assumed)": "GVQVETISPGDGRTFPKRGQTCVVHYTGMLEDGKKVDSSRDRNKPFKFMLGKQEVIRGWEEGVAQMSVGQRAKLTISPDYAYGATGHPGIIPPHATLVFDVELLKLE", "experiment": "FKBP12F36V-Nluc dual luciferase assay (293FT)", "type": "cell-based", "details": "293FT, 24 h", "method_in_brief": "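293FT cells expressing FKBP12^WT-Nluc or FKBP12^F36V-Nluc with Fluc were treated with compound for 24 h at 37 °C. Fluc, then Nluc, luminescence was read with Dual-Glo reagents. Values are DMSO-normalised Nluc/Fluc ratios.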"}, "[1]": {"test_system": "PATU-8902 LACZ-FKBP12^F36V clone", "experiment": "Quantitative MS proteomics, PATU-8902 LACZ-FKBP12F36V clone", "type": "cell-based, Homo sapiens", "details": "for TMT intensity per TMT channel: PATU-8902 LACZ-FKBP12F36V samples, biological replicates", "description": "Cell pellets from PATU-8902 and EWS502 cells were lysed using 8 M urea, 200 mM 4-(2-hydroxyethyl)-1-piperazinepropanesulfonic acid (EPPS) at pH 8.5 with protease inhibitors. Samples were further homogenized and DNA was sheered via sonication using a probe sonicator (20 × 0.5 s pulses; level 3). Total protein was determined using a BCA assay and stored at −80 °C until future use. A total of 100 µg of protein was aliquoted for each condition and TMT channel for further downstream processing. Protein extracts were reduced using 10 mM dithiothreitol (DTT) for 30 min at room temperature. Next, samples were alkylated with 20 mM iodoacetamide for 45 min in the dark at room temperature. To facilitate the removal of incompatible reagents, proteins were precipitated using chloroform methanol. Briefly, to 100 µL of each sample, 400 µL of methanol was added, followed by 100 µL of chloroform with thorough vortexing. Next, 300 µL of HPLC grade water was added and samples were vortexed thoroughly. Each sample was centrifuged at 14,000 × g for 5 min at room temperature. The upper aqueous layer was removed and the protein pellet was washed twice with methanol and centrifuged at 14,000 × g for 5 min at room temperature. Protein pellets were resolubilized in 200 mM EPPS buffer and digested overnight with Lys-C (1:100, enzyme:protein ratio) at room temperature. The next day, trypsin (1:100 ratio) was added and incubated at 37 °C for an additional 6 h in a ThermoMixer set to 1000 RPM.\nTo each digested sample, 30% anhydrous acetonitrile was added and 100 µg of peptides were labeled using 200 µg of TMT reagent (TMT1-TMT11). Following labeling, a 5% hydroxylamine solution was used to quench excess TMT reagent. To equalize protein loading, a ratio check was performed by pooling 2 µg of each TMT-labeled sample. Samples were pooled and desalted using in-house packed C18 StageTips and analyzed by LC-MS/MS. Normalization factors were calculated from this label check, samples were mixed 1:1 across all TMT channels and desalted using a 100 mg Sep-Pak solid phase extraction cartridge. Eluted pooled peptides were further fractionated with basic-pH reverse-phase (bRP) HPLC using an Agilent 300 extend C18 column and collected into a 96 deep-well plate. Samples were consolidated into 24 fractions, and 12 nonadjacent fraction were desalted using StageTips prior to analyses using LC-MS/MS[35]–[37].\nAll mass spectrometry data was acquired using an Orbitrap Fusion mass spectrometer in-line with a Proxeon NanoLC-1000 UHPLC system. Peptides were separated using an in-house 100 µm capillary column packed with 40 cm of Accucore 150 resin (2.6 µm, 150 Å) (Thermo Fisher Scientific) using a 180 min LC gradient per fraction. Eluted peptides were acquired using synchronous precursor selection (SPS-MS3) method for TMT quantification. Briefly, MS1 spectra were acquired at 120 K resolving power with a maximum of 50 ms in the Orbitrap. MS2 spectra were acquired by selecting the top ten most abundant features via collisional induced dissociation (CID) in the ion trap using an automatic gain control (AGC) of 15 K, quadrupole isolation width of 0.7 m/z and a maximum ion time of 100 ms. For MS3 acquisition, a synchronous precursor selection of ten fragment ions was acquired with an AGC of 150 K for 150 ms and a normalized collision energy of 55.\nAll acquired raw data were converted to mzXML using Raw File Reader (v3.0.77). Spectra were processed using Comet (2019.01.5)[39]–[41], search results were filtered using the LDA function MASS Package in R, and data were processed using an in-house informatics pipeline[42]–[44]. Custom code was not developed in this study. Briefly, peptide spectral libraries were first filtered to a peptide false discovery rate (FDR) of less than 1% using linear discriminant analysis employing a target decoy strategy. […]"}, "[2]": {"test_system": "PATU-8902 LACZ-FKBP12^F36V clone", "experiment": "Antiproliferation, PATU-8902 LACZ-FKBP12F36V clone, 2D-monolayer (CellTiter-Glo)", "type": "cell-based", "method_in_brief": "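Viability of cells grown as 2D-adherent monolayers was determined with the CellTiter-Glo luminescent reagent (Promega). Luminescence signals were read on either an Envision 2104 plate reader (PerkinElmer) or a Fluostar Omega Reader (BMG Labtech), and the resulting data were processed and analyzed in GraphPad PRISM v8 software.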"}, "[3]": {"details": "protein LACZ-FKBP12F36V, 500 nM, 4 h"}}, "note": "Values joined by “and” are separate entries in the source; they are usually repeats but may differ in a detail not shown here. Equal values may be shown once."}
{"smiles": "CC[C@H](C(=O)N1CCCC[C@H]1C(=O)O[C@H](CCc1ccc(OC)c(OC)c1)c1ccccc1OCC(=O)NCCCCCCC(=O)N[C@H](C(=O)N1C[C@H](O)C[C@H]1C(=O)N[C@@H](C)c1ccc(-c2scnc2C)cc1)C(C)(C)C)c1cc(OC)c(OC)c(OC)c1", "note": "[dTAG^V-1]", "values": [{"measurement": "Degradation of FKBP12F36V-Nluc (in words)", "setting": "FKBP12^F36V-Nluc", "result": "potent degradation"}, {"measurement": "Protein levels of VHL or VHL-regulated targets", "setting": "[1]; 500 nM, 4 h", "result": "No significant changes"}, {"measurement": "log2 (Fold change) compared to DMSO", "setting": "[1]; protein BCAR3, 500 nM, 4 h", "result": 0.1578}, {"measurement": "TMT intensity per TMT channel", "setting": "[1]; protein CDK12", "result": "2772.29 and 2668.65 and 2839.83"}, {"measurement": "log2 (Fold change) compared to DMSO", "setting": "[1]; protein CYBA, 500 nM, 4 h", "result": -0.2931}, {"measurement": "TMT intensity per TMT channel", "setting": "[1]; protein INCENP", "result": "2143.95 and 2638.07 and 2856.47"}, {"measurement": "TMT intensity per TMT channel", "setting": "[1]; protein IRS2", "result": "352.3 and 336.062 and 338.748"}, {"measurement": "Fold change < -2", "setting": "[1]; [3]", "result": "+ (Fold change in which '+' refers to fold change < -2.)"}, {"measurement": "log2 (Fold change) compared to DMSO", "setting": "[1]; [3]", "result": -1.082}, {"measurement": "log2 (Fold change) compared to DMSO", "setting": "[1]; protein RAB18, 500 nM, 4 h", "result": -0.08378}, {"measurement": "log2 (Fold change) compared to DMSO", "setting": "[1]; protein SEPTIN10, 500 nM, 4 h", "result": 0.1418}, {"measurement": "TMT intensity per TMT channel", "setting": "[1]; protein SLC12A2", "result": "1789.71 and 1681.54 and 1827.76"}, {"measurement": "TMT intensity per TMT channel", "setting": "[1]; protein SLC15A4", "result": "231.802 and 205.301 and 235.055"}, {"measurement": "DMSO-normalized antiproliferation", "setting": "[2]; log10[compound] (M) -5.69897, replicate values", "result": "35.4292 and 29.4521 and 35.0517 and 31.6104"}, {"measurement": "DMSO-normalized antiproliferation", "setting": "[2]; log10[compound] (M) -6.19897, replicate values", "result": "87.2455 and 81.8203 and 77.0995 and 64.2664"}, {"measurement": "DMSO-normalized antiproliferation", "setting": "[2]; log10[compound] (M) -6.69897", "result": "102.668 and 99.5089 and 89.7578 and 106.231"}, {"measurement": "DMSO-normalized antiproliferation", "setting": "[2]; log10[compound] (M) -6.69897, replicate values", "result": "124.825 and 81.8259 and 133.331 and 119.877"}, {"measurement": "DMSO-normalized antiproliferation", "setting": "[2]; log10[compound] (M) -7.19897", "result": "90.1193 and 111.795 and 91.2446 and 98.3924"}, {"measurement": "DMSO-normalized antiproliferation", "setting": "[2]; log10[compound] (M) -7.19897, replicate values", "result": "118.009 and 93.8067 and 130.572 and 123.376"}, {"measurement": "DMSO-normalized antiproliferation", "setting": "[2]; log10[compound] (M) -7.69897", "result": "112.909 and 117.897 and 108.192 and 99.266"}, {"measurement": "DMSO-normalized antiproliferation", "setting": "[2]; log10[compound] (M) -7.69897, replicate values", "result": "133.195 and 132.373 and 134.672 and 120.383"}, {"measurement": "DMSO-normalized antiproliferation", "setting": "[2]; log10[compound] (M) -8.19897", "result": "101.415 and 100.309 and 97.138 and 102.461"}, {"measurement": "DMSO-normalized antiproliferation", "setting": "[2]; log10[compound] (M) -8.19897, replicate values", "result": "136.88 and 106.56 and 99.7166 and 163.283"}, {"measurement": "DMSO-normalized antiproliferation", "setting": "[2]; log10[compound] (M) -8.69897", "result": "103.413 and 90.0724 and 92.9073 and 97.9489"}, {"measurement": "DMSO-normalized antiproliferation", "setting": "[2]; log10[compound] (M) -8.69897, replicate values", "result": "148.548 and 115.202 and 143.359 and 119.836"}, {"measurement": "DMSO-normalized antiproliferation", "setting": "[2]; log10[compound] (M) -9.19897, replicate values", "result": "116.491 and 96.4785 and 115.962 and 80.4138"}, {"measurement": "DMSO-normalized antiproliferation", "setting": "[2]; log10[compound] (M) -9.69897, replicate values", "result": "139.57 and 103.845 and 96.4961 and 122.632"}, {"measurement": "DMSO-normalized antiproliferation", "setting": "[2]; log10[compound] (M) -10.199, replicate values", "result": "133.817 and 113.621 and 96.1958 and 88.4566"}]}
